Assay results published in US11453666B2, “Autotaxin inhibitory compounds” (Cancer Research Technology Limited, priority 2015, dated 2022).
Like-named read-outs stand apart in the source and are kept apart here.

Target: human recombinant ATX (Homo sapiens, UniProt Q13822)
Assay: Autotaxin (ATX) activity Quanta Red assay
Assay type: biochemical
Method in brief: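 Recombinant human ATX reaction stopped after 2 h with Quanta Red stop solution; fluorescence read at […]. Controls with DMSO, with and without ATX; IC50 in duplicate.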

[1] = read-out: Activity (ATX activity, Quanta Red assay; IC50)
[2] = Table 2: additional compounds tested for ATX activity (Quanta Red Assay), read-out: Activity

Compound | IC50 [1] [nM] | IC50 [2] [nM]
COc1ccc(CNC(=O)CCc2nc3cccnc3n2Cc2ccc(F)cc2)cc1 [Example 97, 3-[3-(4-Fluoro-benzyl)-3H-imidazo[4,5-b]pyridin-2-yl]-N-(4-methoxy-benzyl)-propionamide] | 40 | 
O=C(CCc1nc2cccnc2n1Cc1ccc(F)c(F)c1)NC(CO)c1ccc(Cl)cc1 (centres unmarked) [Example 35, N-[1-(4-Chloro-phenyl)-2-hydroxy-ethyl]-3-[3-(3,4-difluoro-benzyl)-3H-imidazo[4,5-b]pyridin-2-yl]-propionamide] | 7 | 
O=C(CCc1nc2cccnc2n1Cc1ccc(F)cc1)NCc1ccc(F)cc1 [Example 94, N-(4-Fluoro-benzyl)-3-[3-(4-fluoro-benzyl)-3H-imidazo[4,5-b]pyridin-2-yl]-propionamide] | 25 | 
Cc1ccc([C@H](C)NC(=O)CCc2nc3cccnc3n2Cc2ccc(F)c(F)c2)cc1 [Example 85, 3-[3-(3,4-Difluoro-benzyl)-3H-imidazo[4,5-b]pyridin-2-yl]-N-((S)-1-p-tolyl-ethyl)-propionamide] | 4 | 
C[C@H](NC(=O)CCc1nc2cccnc2n1Cc1ccc(F)c(F)c1)c1ccc(N2CCN[C@@H](C)C2)cc1 [Example 184, 3-[3-(3,4-Difluoro-benzyl)-3H-imidazo[4,5-b]pyridin-2-yl]-N-{(S)-1-[4-((S)-3-methyl-piperazin-1-yl)-phenyl]-ethyl}-propionamide] | 12 | 
COc1ccc(Cn2c(CCC(=O)NCc3ccc4c(c3)OCO4)nc3cccnc32)cc1 [Example 234, N-Benzo[1,3]dioxol-5-ylmethyl-3-[3-(4-methoxy-benzyl)-3H-imidazo[4,5-b]pyridin-2-yl]-propionamide] |  | 720
CN(C)CCCOc1ccc(CNC(=O)CCc2nc3cccnc3n2Cc2ccc(OC(F)(F)F)cc2)cc1 [Example 10, N-[4-(3-Dimethylamino-propoxy)-benzyl]-3-[3-(4-trifluoromethoxy-benzyl)-3H-imidazo[4,5-b]pyridin-2-yl]-propionamide] | 2 | 
COc1ccc(Cn2c(CCC(=O)NCCc3cccc(C)c3)nc3cccnc32)cc1 [Example 229, 3-[3-(4-Methoxy-benzyl)-3H-imidazo[4,5-b]pyridin-2-yl]-N-(2-m-tolyl-ethyl)-propionamide] |  | 466
C[C@H](NC(=O)CCc1nc2cccnc2n1Cc1ccc(F)c(F)c1)c1ccc(N2CCCCC2)cc1 [Example 187, 3-[3-(3,4-Difluoro-benzyl)-3H-imidazo[4,5-b]pyridin-2-yl]-N-[(S)-1-(4-piperidin-1-yl-phenyl)-ethyl]-propionamide] | 15 | 
C[C@@H]1CN(c2ccc([C@H](C)NC(=O)CCc3nc4cccnc4n3Cc3ccc(OC(F)(F)F)cc3)cc2)CCN1 [Example 174, N-{(S)-1-[4-((R)-3-Methyl-piperazin-1-yl)-phenyl]-ethyl}-3-[3-(4-trifluoromethoxy-benzyl)-3H-imidazo[4,5-b]pyridin-2-yl]-propionamide] | 2 | 
COc1ccc(Cn2c(CCC(=O)Nc3ccc(F)cc3)nc3cccnc32)cc1 [Example 227, N-(4-Fluoro-phenyl)-3-[3-(4-methoxy-benzyl)-3H-imidazo[4,5-b]pyridin-2-yl]-propionamide] |  | 3830
O=C(CCc1nc2cccnc2n1Cc1ccc(F)c(F)c1)NCC1CCCCC1 [Example 71, N-Cyclohexylmethyl-3-[3-(3,4-difluoro-benzyl)-3H-imidazo[4,5-b]pyridin-2-yl]-propionamide] | 243 | 
CCOc1ccc(CCNC(=O)CCc2nc3cccnc3n2Cc2ccccc2)cc1 [Example 225, 3-(3-Benzyl-3H-imidazo[4,5-b]pyridin-2-yl)-N-[2-(4-ethoxy-phenyl)-ethyl]-propionamide] |  | 708
O=C(CCc1nc2cccnc2n1Cc1ccc(OC(F)(F)F)cc1)N[C@@H](CO)c1ccccc1 [Example 7, N-((R)-2-Hydroxy-1-phenyl-ethyl)-3-[3-(4-trifluoromethoxy-benzyl)-3H-imidazo[4,5-b]pyridin-2-yl]-propionamide] | 1 | 
O=C(CCc1nc2cccnc2n1Cc1ccc(F)c(F)c1)NC(CCO)c1ccc(F)cc1 (centres unmarked) [Example 48, 3-[3-(3,4-Difluoro-benzyl)-3H-imidazo[4,5-b]pyridin-2-yl]-N-[1-(4-fluoro-phenyl)-3-hydroxy-propyl]-propionamide] | 19 | 
COc1ccc(CNC(=O)CCc2nc3cccnc3n2Cc2ccc(F)c(F)c2)cc1 [Example 100, 3-[3-(3,4-Difluoro-benzyl)-3H-imidazo[4,5-b]pyridin-2-yl]-N-(4-methoxy-benzyl)-propionamide] | 50 | 
COc1ccc(Cn2c(CCC(=O)NC(C)C)nc3cccnc32)cc1 [Example 113, N-Isopropyl-3-[3-(4-methoxy-benzyl)-3H-imidazo[4,5-b]pyridin-2-yl]-propionamide] | 1500 | 
COc1ccc(CCNC(=O)CCc2nc3cccnc3n2Cc2ccc(OC)cc2)cc1 [Example 116, 3-[3-(4-Methoxy-benzyl)-3H-imidazo[4,5-b]pyridin-2-yl]-N-[2-(4-methoxy-phenyl)-ethyl]-propionamide] | 778 | 
COc1ccc(Cn2c(CCC(=O)NCc3ccc(F)cc3)nc3cccnc32)cc1 [Example 219, N-(4-Fluoro-benzyl)-3-[3-(4-methoxy-benzyl)-3H-imidazo[4,5-b]pyridin-2-yl]-propionamide] |  | 89
O=C(CCc1nc2cccnc2n1Cc1ccccc1)NCc1ccc(F)cc1 [Example 223, 3-(3-Benzyl-3H-imidazo[4,5-b]pyridin-2-yl)-N-(4-fluoro-benzyl)-propionamide] |  | 324
C[C@H](NC(=O)CCc1nc2cccnc2n1Cc1ccc(F)c(F)c1)c1ccc(CN2CCOCC2)cc1 [Example 206, 3-[3-(3,4-difluoro-benzyl)-3H-imidazo[4,5-b]pyridin-2-yl]-N—[(S)-1-(4-morpholin-4-ylmethyl-phenyl)-ethyl]-propionamide] | 3 | 
C[C@H](NC(=O)CCc1nc2cccnc2n1Cc1ccc(OC(F)(F)F)cc1)c1ccc(N2CCCNCC2)cc1 [Example 170, N-[(S)-1-(4-[1,4]Diazepan-1-yl-phenyl)-ethyl]-3-[3-(4-trifluoromethoxy-benzyl)-3H-imidazo[4,5-b]pyridin-2-yl]-propionamide] | 2 | 
O=C(CCc1nc2ccncc2n1Cc1ccc(OC(F)(F)F)cc1)NC(CO)c1ccc(OC(F)(F)F)cc1 (centres unmarked) [Example 126, N-[2-Hydroxy-1-(4-trifluoromethoxy-phenyl)-ethyl]-3-[3-(4-trifluoromethoxy-benzyl)-3H-imidazo[4,5-c]pyridin-2-yl]-propionamide] | 11 | 
Cc1cnc2c(c1)nc(CCC(=O)N[C@@H](C)c1ccc(N[C@H]3CCNC3)cc1)n2Cc1ccc(OC(F)(F)F)cc1 [Example 189, 3-[6-Methyl-3-(4-trifluoromethoxy-benzyl)-3H-imidazo[4,5-b]pyridin-2-yl]-N-{(S)-1-[4-((S)-pyrrolidin-3-ylamino)-phenyl]-ethyl}-propionamide] | 16 | 
COc1ccc(Cn2c(CCC(=O)NCc3cccc(Cl)c3)nc3cccnc32)cc1 [Example 231, N-(3-Chloro-benzyl)-3-[3-(4-methoxy-benzyl)-3H-imidazo[4,5-b]pyridin-2-yl]-propionamide] |  | 200
O=C(CCc1nc2cccnc2n1Cc1ccc(F)c(F)c1)NCc1ccc(OC(F)(F)F)cc1 [Example 57, 3-[3-(3,4-Difluoro-benzyl)-3H-imidazo[4,5-b]pyridin-2-yl]-N-(4-trifluoromethoxy-benzyl)-propionamide] | 58 | 
